Experimental data: ChEMBL document CHEMBL1201862, “PubChem BioAssay data set” (2004)
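Briefly, cells in 96-well plates were exposed to five compound concentrations for 48 h, and endpoints were estimated by linear interpolation. GI50: concentration for 50% inhibition of growth.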 Activity calls are given as the source filed them. Cut-off read from the data, not from the text of the source: active = GI50 up to about 1.1 µM and inactive = higher.

Columns and labels:
Assay in all cases: inhibition of tumour cell growth, NCI panel, 48 h
M14 = system: M14
OVCAR-5 = system: OVCAR-5
HCT-116 = system: HCT-116
RXF 393 = system: RXF 393
NCI-H23 = system: NCI-H23
SN12C = system: SN12C
NCI-H460 = system: NCI-H460
DMS-114 = system: DMS-114
EKVX = system: EKVX
U-251 = system: U-251
TK-10 = system: TK-10
OVCAR-8 = system: OVCAR-8
SNB-19 = system: SNB-19
HCT-15 = system: HCT-15
HCC 2998 = system: HCC 2998
HOP-92 = system: HOP-92
MDA-MB-231 = system: MDA-MB-231
PC-3 = system: PC-3
MDA-MB-435 = system: MDA-MB-435

| SMILES | GI50 (M14) | GI50 (OVCAR-5) | GI50 (HCT-116) | GI50 (RXF 393) | GI50 (NCI-H23) | GI50 (SN12C) | GI50 (NCI-H460) | GI50 (DMS-114) | GI50 (EKVX) | GI50 (U-251) | GI50 (TK-10) | GI50 (OVCAR-8) | GI50 (SNB-19) | GI50 (HCT-15) [µM] | GI50 (HCC 2998) | GI50 (HOP-92) | GI50 (MDA-MB-231) | GI50 (PC-3) | GI50 (MDA-MB-435) |
| --- | --- | --- | --- | --- | --- | --- | --- | --- | --- | --- | --- | --- | --- | --- | --- | --- | --- | --- | --- |
| C[P+](C)(CC(F)(F)F)c1ccccc1 | > 100 µM (inactive) | > 100 µM (inactive) | > 100 µM (inactive) | > 100 µM (inactive) | > 100 µM (inactive) | > 100 µM (inactive) | > 100 µM (inactive) | > 100 µM (inactive) | > 100 µM (inactive) | > 100 µM (inactive) | > 100 µM (inactive) | > 100 µM (inactive) | > 100 µM (inactive) | > 100 | > 100 µM (inactive) | – | – | – | – |
| COc1cc2c(cc1OC)c1c(OC)c(OC)cc3c1c1c2sc(=S)n1CC3 | 18.4 µM (inactive) | > 100 µM (inactive) | 97.9 µM (inactive) | 89.1 µM (inactive) | 44.4 µM (inactive) | 64.6 µM (inactive) | 42.7 µM (inactive) | 29.3 µM (inactive) | > 100 µM (inactive) | 66.5 µM (inactive) | > 100 µM (inactive) | 41.8 µM (inactive) | 67.1 µM (inactive) | 42.3 | 53.1 µM (inactive) | > 100 µM (inactive) | – | – | – |
| COc1ccc(C2C(Cl)C(=O)N2n2cnc3ccccc3c2=O)cc1OC (configuration not stated) | > 100 µM (inactive) | > 100 µM (inactive) | 53 µM (inactive) | 96.8 µM (inactive) | 42 µM (inactive) | > 100 µM (inactive) | 81.1 µM (inactive) | > 100 µM (inactive) | > 100 µM (inactive) | > 100 µM (inactive) | > 100 µM (inactive) | > 100 µM (inactive) | 52.4 µM (inactive) | > 100 | > 100 µM (inactive) | – | – | – | – |
| COc1ccc(/C=C2\CCC(C)(CN(C)C)C2=O)cc1OC (configuration not stated) | > 100 µM (inactive) | > 100 µM (inactive) | > 100 µM (inactive) | > 100 µM (inactive) | > 100 µM (inactive) | > 100 µM (inactive) | > 100 µM (inactive) | > 100 µM (inactive) | 32.8 µM (inactive) | > 100 µM (inactive) | > 100 µM (inactive) | > 100 µM (inactive) | > 100 µM (inactive) | > 100 | > 100 µM (inactive) | > 100 µM (inactive) | – | – | – |
| OC(c1ccccc1)(c1ccccc1)c1cccnc1 | > 100 µM (inactive) | > 100 µM (inactive) | > 100 µM (inactive) | – | > 100 µM (inactive) | > 100 µM (inactive) | > 100 µM (inactive) | > 100 µM (inactive) | > 100 µM (inactive) | > 100 µM (inactive) | > 100 µM (inactive) | > 100 µM (inactive) | > 100 µM (inactive) | > 100 | > 100 µM (inactive) | – | – | – | – |
| C#CC1/C(=C\C(=O)OC)CCCC1O (configuration not stated) | > 100 µM (inactive) | > 100 µM (inactive) | > 100 µM (inactive) | > 100 µM (inactive) | > 100 µM (inactive) | > 100 µM (inactive) | > 100 µM (inactive) | > 100 µM (inactive) | > 100 µM (inactive) | > 100 µM (inactive) | > 100 µM (inactive) | > 100 µM (inactive) | > 100 µM (inactive) | > 100 | > 100 µM (inactive) | > 100 µM (inactive) | – | – | – |
| CC(C)N1CN(C(C(=O)N[C@@H]2C(=O)N3C2SC(C)(C)C3C(=O)O)c2ccccc2)CSC1=S (some centres not stated) | > 100 µM (inactive) | > 100 µM (inactive) | > 100 µM (inactive) | – | > 100 µM (inactive) | > 100 µM (inactive) | 43.7 µM (inactive) | 48.5 µM (inactive) | > 100 µM (inactive) | > 100 µM (inactive) | > 100 µM (inactive) | > 100 µM (inactive) | > 100 µM (inactive) | 22.1 | – | > 100 µM (inactive) | – | – | – |
| COc1ccc2n[se]nc2c1 | > 100 µM (inactive) | > 100 µM (inactive) | – | 48.4 µM (inactive) | > 100 µM (inactive) | > 100 µM (inactive) | – | > 100 µM (inactive) | > 100 µM (inactive) | > 100 µM (inactive) | 70.6 µM (inactive) | > 100 µM (inactive) | 69.2 µM (inactive) | > 100 | 38.6 µM (inactive) | – | – | – | – |
| O=[N+]([O-])C(/C=N/Nc1ccccc1)/C=N/Nc1ccccc1 | > 100 µM (inactive) | > 100 µM (inactive) | > 100 µM (inactive) | > 100 µM (inactive) | > 100 µM (inactive) | > 100 µM (inactive) | > 100 µM (inactive) | > 100 µM (inactive) | > 100 µM (inactive) | > 100 µM (inactive) | > 100 µM (inactive) | > 100 µM (inactive) | > 100 µM (inactive) | > 100 | > 100 µM (inactive) | > 100 µM (inactive) | – | – | – |
| N#CCN1CCOCCOCCN(CC#N)CCOCCOCC1 | > 100 µM (inactive) | > 100 µM (inactive) | > 100 µM (inactive) | > 100 µM (inactive) | > 100 µM (inactive) | > 100 µM (inactive) | > 100 µM (inactive) | > 100 µM (inactive) | > 100 µM (inactive) | – | > 100 µM (inactive) | > 100 µM (inactive) | > 100 µM (inactive) | > 100 | > 100 µM (inactive) | > 100 µM (inactive) | – | – | – |
| O=C(CC1(O)C(=O)Nc2c(Cl)cc(Cl)cc21)c1ccc(Br)cc1Br (configuration not stated) | 5.96 µM (inactive) | 17.7 µM (inactive) | 4.31 µM (inactive) | 11.7 µM (inactive) | 8.26 µM (inactive) | 13.1 µM (inactive) | 16 µM (inactive) | 6.56 µM (inactive) | 19 µM (inactive) | 13.1 µM (inactive) | 18.1 µM (inactive) | 7.98 µM (inactive) | 17.2 µM (inactive) | 8.57 | 16.7 µM (inactive) | 2.4 µM (inactive) | 14.7 µM (inactive) | 16.9 µM (inactive) | 12.8 µM (inactive) |
| O=C(CSc1nnc(Cc2ccccc2)o1)Nc1ccc(Cl)cc1 | > 100 µM (inactive) | 70.3 µM (inactive) | > 100 µM (inactive) | > 100 µM (inactive) | 52.2 µM (inactive) | > 100 µM (inactive) | 77.3 µM (inactive) | 39.4 µM (inactive) | 32.7 µM (inactive) | > 100 µM (inactive) | > 100 µM (inactive) | 96.6 µM (inactive) | > 100 µM (inactive) | > 100 | > 100 µM (inactive) | – | – | – | – |
| COc1cc(OC)c2c(=O)c3c([N+](=O)[O-])cccc3n(C)c2c1 | > 100 µM (inactive) | > 100 µM (inactive) | > 100 µM (inactive) | > 100 µM (inactive) | > 100 µM (inactive) | > 100 µM (inactive) | > 100 µM (inactive) | > 100 µM (inactive) | > 100 µM (inactive) | 94.8 µM (inactive) | > 100 µM (inactive) | > 100 µM (inactive) | > 100 µM (inactive) | > 100 | > 100 µM (inactive) | > 100 µM (inactive) | – | – | – |
| CC1=C(C(=O)NCc2ccccc2)C(c2ccccc2O)C(C(=O)NCc2ccccc2)=C(C)N1 | 17.9 µM (inactive) | 18.9 µM (inactive) | 14.4 µM (inactive) | 17.9 µM (inactive) | 17.1 µM (inactive) | 17.1 µM (inactive) | 18.4 µM (inactive) | 18.2 µM (inactive) | 22.2 µM (inactive) | 15.5 µM (inactive) | 17.9 µM (inactive) | 18.7 µM (inactive) | 19.2 µM (inactive) | 13.6 | 21 µM (inactive) | 22.4 µM (inactive) | – | – | – |
| COC(=O)C(/C(=N\O)C(=O)Nc1ccc(Br)cc1)c1nc2ccccc2nc1O (configuration not stated) | 58.9 µM (inactive) | > 100 µM (inactive) | 55.8 µM (inactive) | 36.7 µM (inactive) | > 100 µM (inactive) | 35.8 µM (inactive) | 89.9 µM (inactive) | 20.9 µM (inactive) | 67.3 µM (inactive) | 34 µM (inactive) | > 10 µM (inactive) | > 100 µM (inactive) | 78.2 µM (inactive) | 64.7 | 92 µM (inactive) | 35.4 µM (inactive) | – | – | – |
| COc1ccc(NC(=O)c2cc(OC)c(OC)c(OC)c2)cc1 | 88.1 µM (inactive) | > 100 µM (inactive) | 36.7 µM (inactive) | 31.3 µM (inactive) | 40.7 µM (inactive) | 55 µM (inactive) | 35.9 µM (inactive) | 25.7 µM (inactive) | > 69.2 µM (inactive) | 39.6 µM (inactive) | > 100 µM (inactive) | 74.6 µM (inactive) | > 100 µM (inactive) | 33.4 | 42.2 µM (inactive) | > 100 µM (inactive) | – | – | – |
| COc1ccc(/C=C/c2cc(OC)c(OC)c(OC)c2)cc1 | 42 µM (inactive) | 1.85 µM (inactive) | 2.86 µM (inactive) | 1.48 µM (inactive) | 5.81 µM (inactive) | 13.2 µM (inactive) | 3.9 µM (inactive) | 27 µM (inactive) | 24.2 µM (inactive) | 2.61 µM (inactive) | 43.7 µM (inactive) | 15.8 µM (inactive) | 13.6 µM (inactive) | 2.57 | 3.7 µM (inactive) | 90.8 µM (inactive) | – | – | – |
| CN1CCN(CN2C(=O)C3C4C=CC(C3C2=O)C2C3C(=O)N(CN5CCN(C)CC5)C(=O)C3C42)CC1 (configuration not stated) | 16.4 µM (inactive) | 30.8 µM (inactive) | 16.5 µM (inactive) | 22.9 µM (inactive) | 21.2 µM (inactive) | 20.3 µM (inactive) | 16.1 µM (inactive) | 17.9 µM (inactive) | – | 20.8 µM (inactive) | 38 µM (inactive) | 17.7 µM (inactive) | – | 16.9 | 34.7 µM (inactive) | – | – | – | – |
